Laboratory results reported in US6977269B1, “Method of improving animal tissue quality” (Pioneer Hi-Bred International, Inc, priority 2001, dated 2005).
Where two headings read alike, the source gives them in different places. Marks after values point to notes of the source that are not given here.

Columns and labels:
lambs = assay: Lamb loin chop coloration in retail display (Hunter values, trained panel); assay type: in vivo; settings: for Hunter L / Hunter a / Hunter b: lamb loin chops, retail case display; for Discoloration: lean discoloration; for Discoloration / Brown color intensity: trained panel
Description: Following carcass fabrication, one boneless leg and the double loin were collected from each carcass, vacuum-packaged, transported and stored under refrigeration (2 to 4° C.) for seven days. […] chops were fabricated from the semimembranosus muscle from each leg following storage. Leg and double-loin chops were wrapped in oxygen permeable fresh meat PVC film. […] The leg chops and second portion of double loin chops were stored in a walk-in cooler.
After seven days in storage, the leg and loin were placed in a display case for nine days to simulate retail meat counter display conditions. Both sides of the double loin chops were evaluated on days 1, 3, 5 and 9 of retail case display for percent lean discoloration and intensity of brownness by a seven-member trained panel and also by a Spectroguard Computer Color Control System. Left and right observation values were averaged.

pigs [1] = assay: Visual panel appearance score of pork loin chops in simulated retail display; assay type: in vivo
Description: (§1) Young pigs were fed a diet containing 15 IU/kg feed (=15 mg/kg feed=[…]) vitamin E (in the form of alpha-tocopherol acetate) up to 120 pounds. Upon reaching 120 pounds, the pigs were randomly assigned to treatments using weight as a blocking factor. Sixteen pigs were allocated to the control diet, while thirteen pigs were allocated to each test diet. Treatments consisted of typical corn-soybean meal based diets with three levels of dietary tocopherol: (1) Control diet (15 mg/kg feed alpha-tocopherol acetate); (2) diets supplemented with 150, 300 or 450 mg/kg feed alpha-tocopherol acetate; and (3) diets supplemented with 150, 300 or 450 mg/kg feed gamma-tocopherol. Diets were formulated to provide adequate levels of all nutrients and fed in four phases.
(§2) Pork chops (2.5 cm) were cut from vacuum-packaged pork loins that had been stored for 21 days at 1 degree C. Freshly cut chops were placed on styrofoam trays with DriLoc (V 50 pads) and overwrapped with PVC (23,250 cc/m 2 /24 hours oxygen permeability). Pork chops were placed in simulated retail display at 2±3 degrees C. for six days. Product temperature was monitored during the display period. Chops were analyzed for lightness (L*), redness (a*), and yellowness (b*) using Illuminant C or D65 on a Minolta Chroma Meter. Three readings per chop were taken on display days 0, 1, 2, 3, 4 and 5.
Loin chop color was evaluated using a trained visual panel of 10 people. Color score was determined using a five-point scale with a score of one (1) representing a very bright pinkish gray and a score of five (5) representing a dull dark red to brown color representative of color deterioration.
(§3) Data were analyzed using the GLM procedure of SAS. Due to a limited number of observations from the 150 IU alpha-tocopherol treatment, no estimates of carcass or loin quality measures are presented for that treatment. Data collected over a period of days were also analyzed as a splitplot. Contrasts were made between the Control and added tocopherol diets, Control and alpha-tocopherol, Control and gamma-tocopherol, and alpha- versus gamma-tocopherol.

pigs [2] = assay: Pork loin pH in swine feeding trial; assay type: in vivo
Description: Applicants assessed the effects of gamma-tocopherol supplementation on meat quality in an experiment in which pork from pigs fed one of three dietary concentrations of gamma-tocopherol was compared to pork from pigs fed either no supplemental tocopherol in excess of amounts needed to support growth and development, or one of three dietary concentrations of alpha-tocopherol.
as §1
The levels of alpha-tocopherol supplementation chosen were those previously shown to improve meat quality and the pigs consuming these diets were used as positive controls. Pigs consuming diets without additional supplementation of alpha or gamma-tocopherol were used as negative controls. Pork quality was assessed using standard methods, including pH, Japanese color score, oxidative stability, retail display appearance and Minolta color values.
The trial was terminated when the average weight of a treatment replicate reached 260 pounds (minimum of 60 days). Standard carcass data (hot carcass weight, backfat, loin depth and lean) were collected. In addition to the standard carcass data collected at the slaughter plant, color, pH, marbling, firmness and Hunter Lab data were collected. Loin and ham samples were also collected for determination of gamma-tocopherol concentration.
(§4) Determination of pH was made on days 0 and 5 as an indication of pork spoilage. Oxidative rancidity was measured using 2-Thiobarbituric acid to determine TBA number. Final values were expressed as mg malonaldehyde per 1000 grams of meat. Purge was determined on the vacuum-packaged pork loins.
as §3

pigs [3] = assay: Minolta Chroma Meter L*, a*, b* of pork chops in simulated retail display; assay type: in vivo
Description: as §1, §2, §3

pigs [4] = assay: Oxidative rancidity of pork chops (2-thiobarbituric acid, TBA number); assay type: in vivo
Description: as §1, §2, §4, §3

[5] = in vivo; cited from earlier work
pigs [6] = assay type: in vivo, swine
Source text: The data was derived from the same swine tests as in Example 1. Data from 43 samples was ranked in descending order for four parameters: alpha-tocopherol concentration, gamma-tocopherol concentration, alpha plus gamma-tocopherol concentration, and ratio of alpha-tocopherol to gamma-tocopherol. The data was divided into four quartiles, averaged, and compared to the corresponding quartile loin pH average.

[7] = five-point scale, all supplemented levels pooled
[8] = pork, all supplemented levels pooled
[9] = dietary level 300 IU, listed as gamma-tocopherol

| Compound | Hunter L (lambs) | Hunter a (lambs) | Hunter b (lambs) | Discoloration (lambs) [%] | Brown color intensity (lambs) | Appearance score (after 5 day retail display) (pigs [1]; dietary level 300 IU) | Appearance score (after 5 day retail display) (pigs [1]; dietary level 450 IU) | Appearance score (after 5 day retail display) (pigs [1]; [7]) | PH (pigs [2]; all supplemented levels pooled) | PH (pigs [2]; dietary level 300 IU) | PH (pigs [2]; dietary level 450 IU) | Minolta L* values (after 5 day retail display) (pigs [3]; all supplemented levels pooled) | Minolta a* values (after 5 day retail display) (pigs [3]; all supplemented levels pooled) | Minolta b* values (after 5 day retail display) (pigs [3]; all supplemented levels pooled) | Minolta L* values (after 5 day retail display) (pigs [3]; dietary level 300 IU) | Minolta a* values (after 5 day retail display) (pigs [3]; dietary level 300 IU) | Minolta b* values (after 5 day retail display) (pigs [3]; dietary level 300 IU) | Minolta L* values (after 5 day retail display) (pigs [3]; dietary level 450 IU) | Minolta a* values (after 5 day retail display) (pigs [3]; dietary level 450 IU) | Minolta b* values (after 5 day retail display) (pigs [3]; dietary level 450 IU) | further results |
| --- | --- | --- | --- | --- | --- | --- | --- | --- | --- | --- | --- | --- | --- | --- | --- | --- | --- | --- | --- | --- | --- |
| Cc1c(C)c2c(c(C)c1O)CC[C@@](C)(CCC[C@H](C)CCC[C@H](C)CCCC(C)C)O2 [Alpha-tocopherol, alpha-tocopherol, reference compound] | 36.3^b | 11.9 | 7.54 | 12.6 | 8.30^b | 3.49 | 4.09 | 3.79 | 5.97 | 6.08^ab | 5.85^b | 43.6 | 7.49 | 4.95 | 45.3^ab | 8.40^a | 5.93^ab | 41.9^bc | 6.58^b | 3.97^bc | Oxidative stability (5 day storage TBA) (pigs [4]; dietary level 300 IU): .134 mg malonaldehyde per 1000 grams of meat; Oxidative stability (5 day storage TBA) (pigs [4]; dietary level 450 IU): .072 mg malonaldehyde per 1000 grams of meat; Oxidative stability (5 day storage TBA) (pigs [4]; [8]): .103 mg malonaldehyde per 1000 grams of meat; absorbed in the bloodstream [5]: about 100%; Corresponding quartile loin pH average (pigs [6]; 1st Q of the ranked parameter): 5.80; Corresponding quartile loin pH average (pigs [6]; 2nd Q of the ranked parameter): 5.78; Corresponding quartile loin pH average (pigs [6]; 3rd Q of the ranked parameter): 6.01; Corresponding quartile loin pH average (pigs [6]; 4th Q of the ranked parameter): 5.93 |
| Cc1c(O)cc2c(c1C)O[C@](C)(CCC[C@H](C)CCC[C@H](C)CCCC(C)C)CC2 [Gamma-tocopherol, gamma-tocopherol] | 38.4^a | 11.7 | 8.11 | 13.7 | 10.3^ab | 4.06 | 3.72 | 3.89 | 6.11 | 6.28^a | 5.94^b | 41.4 | 8.13 | 4.48 | 39.7^c | 8.20^a | 3.85^c | 43.0^b | 8.05^a | 5.12^bc | Appearance score (after 5 day retail display) (pigs [1]; dietary level 150 IU): 4.05; PH (pigs [2]; dietary level 150 IU): 5.99^ab; Minolta L* values (after 5 day retail display) (pigs [3]; dietary level 150 IU): 42.4^bc; Minolta a* values (after 5 day retail display) (pigs [3]; dietary level 150 IU): 7.57^ab; Minolta b* values (after 5 day retail display) (pigs [3]; dietary level 150 IU): 5.13^bc; Minolta a* values (after 5 day retail display) (pigs [3]; [9]): 8.40; Oxidative stability (5 day storage TBA) (pigs [4]; dietary level 150 IU): .177 mg malonaldehyde per 1000 grams of meat; Oxidative stability (5 day storage TBA) (pigs [4]; dietary level 300 IU): .080 mg malonaldehyde per 1000 grams of meat; Oxidative stability (5 day storage TBA) (pigs [4]; [9]): 0.080 mg malonaldehyde per 1000 gram; Oxidative stability (5 day storage TBA) (pigs [4]; dietary level 450 IU): .125 mg malonaldehyde per 1000 grams of meat; Oxidative stability (5 day storage TBA) (pigs [4]; [8]): .102 mg malonaldehyde per 1000 grams of meat; absorbed in the bloodstream [5]: 3–19%; Corresponding quartile loin pH average (pigs [6]; 1st Q of the ranked parameter): 6.03; Corresponding quartile loin pH average (pigs [6]; 2nd Q of the ranked parameter): 5.95; Corresponding quartile loin pH average (pigs [6]; 3rd Q of the ranked parameter): 5.77; Corresponding quartile loin pH average (pigs [6]; 4th Q of the ranked parameter): 5.77 |
